Assay results published in patent US8658690B2, “Use of novel compounds from fruiting body of Antrodia camphorata for treating an inflammatory disorder” (Well Shine Biotechnology Development Co., Ltd., priority 2008, dated 2014).
Converted amounts (≈) assume the structure as drawn. Each block holds one molecule with its values, some of them ahead of it.

Experiments:
Format in all cases: cell-based, murine
[1] = tested on: LPS-stimulated RAW264.7 macrophage cells; assay: Cell viability by MTT method in LPS-stimulated RAW264.7 cells; details: 30 min pretreatment then 50 ng/mL LPS 48 hours
Experimental: (§1) IL-6, a proinflammatory cytokine which is a useful marker of infection, is secreted by macrophages in many infectious and inflammatory states, including cardiac surgery, cardiogenic shock, coronary bypass and bacteria sepsis (Kantar, M. et al., Eur. J. Pediatr. 2000, 159, 156-157). Serum concentration of IL-6 has been reported to correlate with disease severity (Pathan, N. et al., Lancet 2004, 363, 203-209). The productions of IL-6 from LPS-stimulated macrophages were measured to evaluate the anti-inflammation effect of the compounds. The cells were pretreated with compounds isolated from A. camphorata for 30 min and then stimulated with 50 ng/mL LPS for 48 hours. The supernatants were collected for TNF-α and IL-6 assay, and the cells were collected for viability analysis by MTT method.

IL-6 = IL-6 secretion in LPS-stimulated RAW264.7 cells, ELISA; details: for IL-6 (pg/mL) secretion: LPS control 238 ± 86; for IC50: Mus musculus, LPS-stimulated RAW264.7, 50 ng/mL LPS 48 hours, highest tested concentration 10 μg/mL, read-out: IC50 of IL-6 production
Experimental: (§2) The cytokine levels in culture supernatants were measured by sandwich ELISA methods as described by Chen and Lin (Chen, M. L. et al., Int. Arch. Allergy Immunol. 2007, 143, 21-30). More specifically, the anti-cytokine antibodies (PharMingen, San Diego, Calif.) were coated in the 96-well plates (Nunc, Roskilde, Denmark) after overnight incubation at 4° C. and having been blocked with 1% BSA PBS buffer for 30 min. The samples and standards (recombinant mouse cytokines, PharMingen) were added to the 96-well plates for 2 hours incubation. The biotin-conjugated antibodies (biotinylated rat anti-mouse cytokine monoclonal antibodies, PharMingen) were added and incubated. After washing, streptavidin-conjugated peroxidase was added for 1 hour. The substrates, 2,2′-azino-bis-3-ethyl-benzthiazoline-6-sulfonic acid (ABTS, Sigma), were added to each well for 20 min. The plates were read in a microplate autoreader (Microplate autoreader; Bio-Tek Instruments, Winooski, Vt.) at 405 nm.
as §1

TNF-α [2] = assay: Spontaneous TNF-α secretion by RAW264.7 cells, sandwich ELISA of supernatants; details: 48 hours; for TNF-α (pg/mL) secretion: spontaneous, control 88 ± 45
Experimental: as §2
(§3) To evaluate the immunomodulatory effects of these new compounds, the in vitro production of cytokines in RA W264.7 cells were treated without or with the compounds of the invention at different concentrations for 48 hours. The supernatants were collected for TNF-α assay, and cells were collected for viability analysis by MTT method.

[3] = tested on: RAW264.7 macrophage cells; assay: Cell viability by MTT method in RAW264.7 cells treated with compounds for 48 hours (no LPS); details: RAW264.7, no LPS; for Cell viability (%): mean ± SD
Experimental: as §3

TNF-α [4] = assay: TNF-α secretion in LPS-stimulated RAW264.7 cells, ELISA; details: 50 ng/mL LPS 48 hours, LPS control 3.81 ± 0.93
Experimental: as §2, §1

[5] = 0.5 μg/mL, 50 ng/mL LPS 48 hours
[6] = 10 μg/mL, 50 ng/mL LPS 48 hours

IC50 (IL-6): 18 µg/mL (≈ 73.4 µM)
Structure (SMILES): CC(C)CC1=C(c2ccc(O)cc2)C(=O)NC1=O [Compound 4, 3-(4-Hydroxyphenyl)-4-isobutyl-1H-pyrrole-2,5-dione]
Cell viability (%) ([1]; 0.5 μg/mL): 105 ± 6%
Cell viability (%) ([1]; 1 μg/mL): 103 ± 5%
Cell viability (%) ([1]; 5 μg/mL): 97 ± 5%
Cell viability (%) ([1]; 10 μg/mL): 92 ± 8%
IL-6 (pg/mL) secretion (IL-6; [5]): 194 ± 81 pg/mL
IL-6 (pg/mL) secretion (IL-6; 1 μg/mL, 50 ng/mL LPS 48 hours): 257 ± 40 pg/mL
IL-6 (pg/mL) secretion (IL-6; 5 μg/mL, 50 ng/mL LPS 48 hours): 195 ± 83 pg/mL
IL-6 (pg/mL) secretion (IL-6; [6]): 169 ± 63 pg/mL
TNF-α (pg/mL) secretion (TNF-α [2]; 0.5 μg/mL): 91 ± 38 pg/mL
TNF-α (pg/mL) secretion (TNF-α [2]; 1 μg/mL): 83 ± 22 pg/mL
TNF-α (pg/mL) secretion (TNF-α [2]; 2 μg/mL): 105 ± 13 pg/mL
TNF-α (pg/mL) secretion (TNF-α [2]; 5 μg/mL): 118 ± 23 pg/mL
TNF-α (pg/mL) secretion (TNF-α [2]; 10 μg/mL): 104 ± 25 pg/mL
Cell viability (%) ([3]; 0.5 μg/mL): 97 ± 13%
Cell viability (%) ([3]; 1 μg/mL): 99 ± 4%
Cell viability (%) ([3]; 2 μg/mL): 97 ± 5%
Cell viability (%) ([3]; 5 μg/mL): 94 ± 7%
Cell viability (%) ([3]; 10 μg/mL): 81 ± 8 %
TNF-α (ng/mL) secretion (TNF-α [4]; 0.5 μg/mL): 2.98 ± 0.24 ng/mL
TNF-α (ng/mL) secretion (TNF-α [4]; 1 μg/mL): 3.22 ± 0.35 ng/mL
TNF-α (ng/mL) secretion (TNF-α [4]; 5 μg/mL): 3.72 ± 0.23 ng/mL
TNF-α (ng/mL) secretion (TNF-α [4]; 10 μg/mL): 3.12 ± 0.61 ng/mL

IC50 (IL-6): 10 µg/mL (≈ 31.7 µM)
Structure (SMILES): CC(C)=CCOc1ccc([C@@H]2C(=O)NC(=O)[C@H]2CC(C)C)cc1 (relative stereo) [Compound 1, trans-3-Isobutyl-4-[4-(3-methyl-2-butenyloxy)phenyl]pyrrolidine-2,5-dione]
Cell viability (%) ([1]; 0.5 μg/mL): 105 ± 3%
Cell viability (%) ([1]; 1 μg/mL): 106 ± 4%
Cell viability (%) ([1]; 5 μg/mL): 105 ± 3%
Cell viability (%) ([1]; 10 μg/mL): 102 ± 4%
IL-6 production in LPS-stimulated cells (in words) (IL-6; 50 ng/mL LPS 48 hours): significantly decreased
IL-6 (pg/mL) secretion (IL-6; [5]): 213 ± 88 pg/mL
IL-6 (pg/mL) secretion (IL-6; 1 μg/mL, 50 ng/mL LPS 48 hours): 211 ± 99 pg/mL
IL-6 (pg/mL) secretion (IL-6; 5 μg/mL, 50 ng/mL LPS 48 hours): 144 ± 64 pg/mL
IL-6 (pg/mL) secretion (IL-6; [6]): 103 ± 61 pg/mL
spontaneous TNF-α secretion by RAW264.7 cells (in words) (TNF-α [2]; 0.5˜5 μg/mL): significantly increased
TNF-α (pg/mL) secretion (TNF-α [2]; 0.5 μg/mL): 117 ± 31 pg/mL
TNF-α (pg/mL) secretion (TNF-α [2]; 1 μg/mL): 145 ± 44 pg/mL
TNF-α (pg/mL) secretion (TNF-α [2]; 2 μg/mL): 183 ± 89 pg/mL
TNF-α (pg/mL) secretion (TNF-α [2]; 5 μg/mL): 212 ± 60 pg/mL
TNF-α (pg/mL) secretion (TNF-α [2]; 10 μg/mL): 188 ± 41 pg/mL
Cell viability (%) ([3]; 0.5 μg/mL): 103 ± 2%
Cell viability (%) ([3]; 1 μg/mL): 101 ± 3%
Cell viability (%) ([3]; 2 μg/mL): 108 ± 6%
Cell viability (%) ([3]; 5 μg/mL): 100 ± 10%
Cell viability (%) ([3]; 10 μg/mL): 99 ± 7%
effect on cell viability (in words) [3]: without affecting cell viability
TNF-α (ng/mL) secretion (TNF-α [4]; 0.5 μg/mL): 3.69 ± 0.39 ng/mL
TNF-α (ng/mL) secretion (TNF-α [4]; 1 μg/mL): 3.92 ± 0.39 ng/mL
TNF-α (ng/mL) secretion (TNF-α [4]; 5 μg/mL): 3.68 ± 0.25 ng/mL
TNF-α (ng/mL) secretion (TNF-α [4]; 10 μg/mL): 3.65 ± 0.17 ng/mL

IC50 (IL-6): 25 µg/mL (≈ 85.5 µM)
Structure (SMILES): COC(=O)/C(CC(C)C)=C(\C(=O)OC)c1ccc(O)cc1 [Compound 6, Dimethyl 2-(4-hydroxyphenyl)-3-isobutylmaleate]
Cell viability (%) ([1]; 0.5 μg/mL): 108 ± 6%
Cell viability (%) ([1]; 1 μg/mL): 107 ± 7%
Cell viability (%) ([1]; 5 μg/mL): 106 ± 9%
Cell viability (%) ([1]; 10 μg/mL): 102 ± 10%
IL-6 (pg/mL) secretion (IL-6; [5]): 235 ± 106 pg/mL
IL-6 (pg/mL) secretion (IL-6; 1 μg/mL, 50 ng/mL LPS 48 hours): 215 ± 89 pg/mL
IL-6 (pg/mL) secretion (IL-6; 5 μg/mL, 50 ng/mL LPS 48 hours): 209 ± 89 pg/mL
IL-6 (pg/mL) secretion (IL-6; [6]): 179 ± 91 pg/mL
TNF-α (pg/mL) secretion (TNF-α [2]; 0.5 μg/mL): 100 ± 34 pg/mL
TNF-α (pg/mL) secretion (TNF-α [2]; 1 μg/mL): 114 ± 41 pg/mL
TNF-α (pg/mL) secretion (TNF-α [2]; 2 μg/mL): 90 ± 14 pg/mL
TNF-α (pg/mL) secretion (TNF-α [2]; 5 μg/mL): 110 ± 22 pg/mL
TNF-α (pg/mL) secretion (TNF-α [2]; 10 μg/mL): 116 ± 4 pg/mL
Cell viability (%) ([3]; 0.5 μg/mL): 100 ± 6%
Cell viability (%) ([3]; 1 μg/mL): 99 ± 7%
Cell viability (%) ([3]; 2 μg/mL): 102 ± 6%
Cell viability (%) ([3]; 5 μg/mL): 95 ± 8%
Cell viability (%) ([3]; 10 μg/mL): 96 ± 11%
TNF-α (ng/mL) secretion (TNF-α [4]; 0.5 μg/mL): 3.61 ± 0.22 ng/mL
TNF-α (ng/mL) secretion (TNF-α [4]; 1 μg/mL): 3.70 ± 0.50 ng/mL
TNF-α (ng/mL) secretion (TNF-α [4]; 5 μg/mL): 3.80 ± 0.53 ng/mL
TNF-α (ng/mL) secretion (TNF-α [4]; 10 μg/mL): 3.32 ± 0.30 ng/mL
